According to the NIST ThermoML archive (doi:10.1016/j.fluid.2006.01.017):
Numbers after ± are expanded uncertainties.

Tests used:
[1] = refractive index (Na D-line) (dimensionless); settings: 293.2 K; 101.33 kPa; Liquid; Standard Abbe refractometry
[2] = 293.2 K; 101.33 kPa; Liquid

| SMILES | refractive index [1] | mass density [2] [kg/m3] |
| --- | --- | --- |
| CCO [ethanol] | 1.36 ± 0.0004 |  |
| CCOC(C)=O [ethyl acetate] | 1.3702 ± 0.0004 | 900.6 ± 0.3 |
